Source: patent US20130150566A1, “TUMOR-TARGETED TNF-RELATED APOPTOSIS-INDUCING LIGAND'S VARIANT AND THE APPLICATION THEREOF” (TARGETPHARMA LABORATORIES (CHANGZHOU) CO., LTD, priority 2011, published 2013)

How the values were obtained:
Hela cells = assay: Cell apoptosis by double staining of Annexin V and propidium iodide, Hela; type: cell-based, human
Description: (§1) The supernatant is removed and the cells are suspended again by 100 μl binding buffer. Annexin V-FITC (BD Pharmgen Company) is added to which final concentration is 2 μg/ml, and the cells are incubated at the room temperature. 10 minutes later, 400 μl binding buffer is supplemented. The cells are transferred into Flow Analyzer Tube, and 1 μg propidium iodide (Sigma Company) is added into each of the tube. The cells are analyzed by Flow Cytometer within 30 minutes. The experiment is repeated three times for each cell line.
(§2) The activity to induce the tumor cell apoptosis of the tumor-targeted TNF-related apoptosis-inducing ligand's variant NGR-TRAIL is appraised using COLO-205, HCT-15 and HT-29 cells separately (FIG. 4). After induced by series concentration gradient TRAIL variant or TRAIL, the tumor cells are detected by Flow Cytometer according to the double staining method of Annexin V-FITC and Pl. […] The sensibility of Hela cell to TRAIL is increased 8 times because of the addition of the short peptide. […] There is a positive correction between the difference of the apoptosis-inducing to these tumor cells between NGR-L-TRAIL and TRAIL and the expression and the abundance of the CD13 molecule on the surface of tumor cell. […] The NGR domain from NGR-L-TRAIL can direct the protein of TRAIL variant to the surface of target cell to enrichment on the cell surface. […]

[1] = test system: mutated Jurkat cells from FADD−/− and Caspase-−/−; assay: Apoptosis induction in mutated Jurkat cells; type: cell-based
COLO-205 cells = assay: Cell apoptosis by double staining of Annexin V and propidium iodide, COLO-205; type: cell-based; settings: COLO-205 cell
Description: as §1, §2

HCT-15 tumor = assay: Anti-tumor effect in HCT-15 colon cancer model in nude mice; type: in vivo; settings: HCT-15 model; 400 μg/day per mouse combining with CPT-11; 28th day
Description: The female nude mice bought from ShangHai Experiment Animal Center are 5-6 weeks old. The mouse tail intravenous injection of 100 μg of purified Asialo GM-1 antibody (Wako Chemicals Company, Japan) that is specific antibody blocking natural killer cells is carried out first. 24 hours later, 100 thousands of COLO-205, HT-15 and HT-29 colon cancer cells is subcutaneously vaccinated at the top right side of the back of a mouse. When the volume of tumor arrives 70 cubic millimeters, the mice are grouped randomly and treated. […] Hydrosoluble camptothecin CPT-11([…], trade name: Campto, from Pharmacia/Upjohn Company) is administrated by intravenous administration once a week, for twice in all. The recombinant protein and camptothecin are diluted by phosphate buffer. The volume of tumor is detected by vernier caliper and calculated according the formula: length is multiplied by the square of width and then is divided by 2.
The anti-tumor effect of tumor-targeted TRAIL used together with chemotherapeutic drug CPT-11 is researched in the present invention. Through COLO-205, HC-15 and HT-29 models of athymic nude mice, the anti-tumor effect of NGR-L-TRAIL used together with chemotherapeutic drug CPT-11 is researched, wherein, COLO-205, HC-15 are sensitive to TRAIL, and COLO-205 is most sensitive, and HT-29 is insensitive to TRAIL. […]

TRAIL: recombinant wild human TNF-related apoptosis-inducing ligand
50% effective concentration (EC50) (inducing apoptosis) (Hela cells): ~0.145 µg/mL
inducing apoptosis [1]: cannot be detected
50% effective concentration (inducing apoptosis) (COLO-205 cells): 3.5 ng/mL
tumor disappeared mice from the 10 administrated mice (HCT-15 tumor): 7
